Target: T1, TRIM24-PB binding to endogenous histone H3 in HeLa TRIM24-PB cells (Homo sapiens, UniProt O15164)
T1 construct: The FLAG-TRIM24-PB construct (residues 810–1050) was generated by PCR amplification; expressed in transfected cells
T1 sequence (O15164 810-1050): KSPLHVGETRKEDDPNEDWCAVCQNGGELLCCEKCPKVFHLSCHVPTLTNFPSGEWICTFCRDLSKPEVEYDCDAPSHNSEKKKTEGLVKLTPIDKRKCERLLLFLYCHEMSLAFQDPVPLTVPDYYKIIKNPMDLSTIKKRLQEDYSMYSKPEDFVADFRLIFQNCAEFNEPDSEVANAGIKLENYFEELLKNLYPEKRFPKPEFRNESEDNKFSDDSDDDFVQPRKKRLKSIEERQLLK
Assay: Cellular TRIM24/histone H3 AlphaLISA binding assay
Type: cell-based
Settings: co-treated with SAHA, 2 h, 6 independent experiments, listed as TRIM24 inhibitor, read-out: Cell EC50 (AlphaLISA)
Protocol: Hela TRIM24-PB cells were maintained in DMEM medium supplemented with 10 % FBS and 5 µg/mL of Blasticidin. Cells were seeded (10,000/well, 40 µL) to 384-well white culture plates (PerkinElmer, #6007680) using a Multidrop 384 reagent dispenser (Thermo Scientific) and incubated overnight at 37 °C and 5 % CO2. On Day 2, the cells were co-treated with SAHA (10 µM) and test compound and incubated at 37 °C and 5 % CO2 for 2 h. The plates were washed twice with PBS (60 µL at RT) using a Biomek FX liquid handler (Beckman Coulter). […] Plates were read on Envision plate reader (PerkinElmer) using AlphaScreen protocol and all IC50 values (four-parameter logistic curve) were obtained using GraphPad Prism 6 software. […]
All EC50 values were calculated based on these POC values using four-parametric nonlinear regression (i.e., curve fitting) software (either Genedata Screener™ software version 11 or Graphpad Prism 6). For the cell-based AlphaLISA assay, the POC values were calculated using the following wells and process: (1) a “blank subtraction” was performed by subtracting the mean signal of the blank control wells (which contained media but lacked cells) from all of the measured values; (2) these corrected values were then used in the POC formula stated above. […] Average and standard Deviation (SD) values were calculated using the Harmony software (PerkinElmer). […]

EC50: 1300 nM
SMILES: Cc1nc(S(=O)(=O)Nc2cc3c(cc2Oc2cccc(OCC(C)C)c2)n(C)c(=O)n3C)cn1C [IACS-6558, N-{1,3-dimethyl-6-[3-(2-methylpropoxy)phenoxy]-2-oxo-2,3-dihydro-1H-1,3-benzodiazol-5-yl}-1,2-dimethyl-1H-imidazole-4-sulfonamide]
